In patent US10947229B2, “Dimethyl amino azetidine amides as JAK inhibitors” (THERAVANCE BIOPHARMA R&D IP, LLC, priority 2018, dated 2021):

What was measured:
JAK2 = JAK2 (Homo sapiens (Human), UniProt O60674); assay: Biochemical JAK kinase assay (LanthaScreen), JAK2
Method: (§1) Recombinant GST-tagged JAK enzymes and a GFP-tagged STAT1 peptide substrate were obtained from Life Technologies. Serially diluted compounds were pre-incubated with each of the four JAK enzymes and the substrate in white 384-well microplates (Corning) at ambient temperature for 1 h. ATP was subsequently added to initiate the kinase reactions in 10 μL total volume, with 1% DMSO. […] Kinase reactions were allowed to proceed for 1 hour at ambient temperature before a 10 μL preparation of EDTA (10 mM final concentration) and Tb-anti-pSTAT1 ([…]) antibody (Life Technologies, 2 nM final concentration) in TR-FRET dilution buffer (Life Technologies) was added. The plates were allowed to incubate at ambient temperature for 1 h before being read on the EnVision reader (Perkin Elmer). Emission ratio signals (520 nm/495 nm) were recorded and utilized to calculate the percent inhibition values based on DMSO and background controls. For dose-response analysis, percent inhibition data were plotted vs. compound concentrations, and IC50 values were determined from a 4-parameter robust fit model with the Prism software (GraphPad Software). Results were expressed as pIC50 (negative logarithm of IC50) and subsequently converted to pKi (negative logarithm of dissociation constant, Ki) using the Cheng-Prusoff equation. Test compounds having a lower Ki value or higher pKi value in the four JAK assays show greater inhibition of JAK activity.

JAK3 = JAK3 (Homo sapiens (Human), UniProt P52333); assay: Biochemical JAK kinase assay (LanthaScreen), JAK3
Chain of JAK3 (P52333 whole entry): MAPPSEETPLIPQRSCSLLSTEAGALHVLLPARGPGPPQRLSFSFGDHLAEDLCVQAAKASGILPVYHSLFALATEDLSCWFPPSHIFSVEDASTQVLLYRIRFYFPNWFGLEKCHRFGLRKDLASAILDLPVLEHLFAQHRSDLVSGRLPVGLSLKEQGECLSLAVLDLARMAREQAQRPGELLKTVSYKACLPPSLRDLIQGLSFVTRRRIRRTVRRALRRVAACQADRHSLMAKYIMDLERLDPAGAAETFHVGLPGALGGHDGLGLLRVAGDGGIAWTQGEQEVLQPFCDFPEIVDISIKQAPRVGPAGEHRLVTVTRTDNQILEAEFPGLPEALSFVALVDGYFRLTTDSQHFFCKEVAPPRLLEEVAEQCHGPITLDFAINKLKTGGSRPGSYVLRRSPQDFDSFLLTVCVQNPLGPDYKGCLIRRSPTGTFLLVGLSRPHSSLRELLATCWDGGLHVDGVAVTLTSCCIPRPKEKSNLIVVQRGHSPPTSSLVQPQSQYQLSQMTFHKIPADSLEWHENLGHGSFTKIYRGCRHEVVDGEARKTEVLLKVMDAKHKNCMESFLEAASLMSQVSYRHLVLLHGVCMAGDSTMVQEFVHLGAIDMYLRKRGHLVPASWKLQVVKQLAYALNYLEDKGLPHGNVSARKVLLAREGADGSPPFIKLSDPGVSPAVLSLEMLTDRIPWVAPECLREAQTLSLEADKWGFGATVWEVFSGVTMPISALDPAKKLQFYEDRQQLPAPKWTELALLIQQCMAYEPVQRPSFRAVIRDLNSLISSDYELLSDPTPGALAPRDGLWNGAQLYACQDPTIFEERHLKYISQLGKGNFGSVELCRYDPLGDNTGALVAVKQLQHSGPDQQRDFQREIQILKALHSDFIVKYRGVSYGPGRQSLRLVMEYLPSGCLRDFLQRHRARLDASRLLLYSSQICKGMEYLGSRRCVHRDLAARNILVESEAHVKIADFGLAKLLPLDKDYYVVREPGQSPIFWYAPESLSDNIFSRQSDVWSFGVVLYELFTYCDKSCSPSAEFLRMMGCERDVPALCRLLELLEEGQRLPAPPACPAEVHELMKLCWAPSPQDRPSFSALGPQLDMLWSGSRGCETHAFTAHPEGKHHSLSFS
Method: as §1, with “equation.” for “equation. Test compounds having a lower Ki value or higher pKi value in the four JAK assays show greater inhibition of JAK activity.”

Tyk2 = Tyk2 (Homo sapiens (Human), UniProt P29597); assay: Biochemical JAK kinase assay (LanthaScreen), Tyk2
Chain of Tyk2 (P29597 whole entry): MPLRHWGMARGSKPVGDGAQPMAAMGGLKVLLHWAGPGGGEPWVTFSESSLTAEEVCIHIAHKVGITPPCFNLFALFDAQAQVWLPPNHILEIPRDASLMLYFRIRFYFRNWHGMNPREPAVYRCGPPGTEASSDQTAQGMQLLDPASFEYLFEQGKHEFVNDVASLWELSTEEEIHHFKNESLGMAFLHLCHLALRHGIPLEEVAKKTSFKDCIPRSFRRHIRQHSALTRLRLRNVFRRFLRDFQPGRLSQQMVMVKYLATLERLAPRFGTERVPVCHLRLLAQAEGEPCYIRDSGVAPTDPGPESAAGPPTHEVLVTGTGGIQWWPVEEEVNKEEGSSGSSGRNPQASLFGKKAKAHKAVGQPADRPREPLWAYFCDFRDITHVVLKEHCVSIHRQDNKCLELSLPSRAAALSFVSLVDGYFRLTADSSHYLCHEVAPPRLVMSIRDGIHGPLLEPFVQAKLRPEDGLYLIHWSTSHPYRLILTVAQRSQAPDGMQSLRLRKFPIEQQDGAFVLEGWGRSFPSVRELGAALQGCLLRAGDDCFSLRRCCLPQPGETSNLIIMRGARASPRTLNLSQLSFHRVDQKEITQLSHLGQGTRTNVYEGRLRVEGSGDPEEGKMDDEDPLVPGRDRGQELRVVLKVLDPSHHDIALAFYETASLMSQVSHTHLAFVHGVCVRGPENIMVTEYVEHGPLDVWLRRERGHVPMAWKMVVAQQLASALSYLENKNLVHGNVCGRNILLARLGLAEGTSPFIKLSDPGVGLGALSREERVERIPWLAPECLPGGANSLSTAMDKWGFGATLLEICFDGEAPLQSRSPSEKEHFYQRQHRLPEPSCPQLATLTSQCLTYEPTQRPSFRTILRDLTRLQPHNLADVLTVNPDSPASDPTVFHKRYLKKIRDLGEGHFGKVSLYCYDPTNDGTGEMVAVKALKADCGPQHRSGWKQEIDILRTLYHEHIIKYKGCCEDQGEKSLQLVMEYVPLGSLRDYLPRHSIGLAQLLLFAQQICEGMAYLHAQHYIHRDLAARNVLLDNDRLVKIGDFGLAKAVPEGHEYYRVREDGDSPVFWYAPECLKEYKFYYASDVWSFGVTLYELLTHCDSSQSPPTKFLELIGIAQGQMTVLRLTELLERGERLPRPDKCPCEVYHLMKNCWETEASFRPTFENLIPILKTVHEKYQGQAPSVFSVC
Method: as §1, with “equation.” for “equation. Test compounds having a lower Ki value or higher pKi value in the four JAK assays show greater inhibition of JAK activity.”

[1] = system: IL-2 stimulated pSTAT5 in Tall-1 T cells; assay: Inhibition of IL-2 stimulated pSTAT5 in Tall-1 T cells; format: cell-based; details: IL-2 stimulated pSTAT5, Tall-1 human T cell line; read-out: Tall-1 pIC50 (converted)
Method: The potency of test compounds for inhibition of interleukin-2 (IL-2) stimulated STAT5 phosphorylation was measured in the Tall-1 human T cell line (DSMZ) using AlphaLisa. Because IL-2 signals through JAK1/3, this assay provides a measure of JAK1/3 cellular potency.
Phosphorylated STAT5 was measured via the AlphaLISA SureFire Ultra pSTAT5 (Tyr694/699) kit (PerkinElmer).
Human T cells from the Tall-1 cell line were cultured in a 37° C., 5% CO2 humidified incubator in RPMI (Life Technologies) supplemented with 15% Heat Inactivated Fetal Bovine Serum (FBS, Life Technologies), 2 mM Glutamax (Life Technologies), 25 mM HEPES (Life Technologies) and 1× Pen/Strep (Life Technologies). Compounds were serially diluted in DMSO and dispensed acoustically to empty wells. Assay media (phenol red-free DMEM (Life Technologies) supplemented with 10% FBS (ATCC)) was dispensed (4 μL/well) and plates shaken at 900 rpm for 10 mins. Cells were seeded at 45,000 cells/well in assay media (4 μL/well), and incubated at 37° C., 5% CO2 for 1 hour, followed by the addition of IL-2 (R&D Systems; final concentration 300 ng/mL) in pre-warmed assay media (4 μL) for 30 minutes. After cytokine stimulation, cells were lysed with 6 ul of 3× AlphaLisa Lysis Buffer (PerkinElmer) containing 1× PhosStop and Complete tablets (Roche). The lysate was shaken at 900 rpm for 10 minutes at room temperature (RT). Phosphorylated STAT5 was measured via the pSTAT5 AlphaLisa kit (PerkinElmer). Freshly prepared acceptor bead mixture was dispensed onto lysate (5 μL) under green filtered <100 lux light. Plates were shaken at 900 rpm for 2 mins, briefly spun down, and incubated for 2 hrs at RT in the dark. Donor beads were dispensed (5 μL) under green filtered <100 lux light. Plates were shaken at 900 rpm for 2 minutes, briefly spun down, and incubated overnight at RT in the dark. Luminescence was measured with excitation at 689 nm and emission at 570 nm using an EnVision plate reader (PerkinElmer) under green filtered <100 lux light.
To determine the inhibitory potency of test compounds in response to IL-2, the average emission intensity of beads bound to pSTAT5 was measured in a human T cell line. IC50 values were determined from analysis of the inhibition curves of signal intensity versus compound concentration. Data are expressed as pIC50 (negative decadic logarithm IC50) values (mean±standard deviation).

Lung S9 metabolism = format: in vitro ADME, human; details: for Compound Remaining at 60 min (%) / microsomal CLint at 1 µM: human lung S9, 1 μM compound, 1 mg/mL S9 protein; for Sulfate Appearance: human lung S9, qualitative O-sulfate metabolite peak; for microsomal CLint at 1 µM: human lung S9 fraction, pH 7.4, NADPH and PAPS, read-out: Clearance
Method: The time 0, 15, 30, and 60 minute samples were analyzed for parent compound by high resolution LC-MS/MS. Lung S9 fractions from human (lot 1410245) were purchased from XenoTech LLC (Lenexa, Kans.). NADPH (Sigma Aldrich, N1630) and 3-phosphoadenosine 5-phosphosulfate (PAPS) (Sigma Aldrich, A1651) were purchased from Sigma Aldrich (St. Louis, Mo.). Acetonitrile and water were obtained from VWR (Radnor, Pa.) and were of HPLC grade or better. Raloxifene and formic acid was purchased from Sigma Aldrich (St. Louis, Mo.). Lung S9 incubations were performed in a water bath at 37° C. in a 96-well polypropylene plate. […] Louis, Mo.), 3 mM magnesium chloride (Sigma Aldrich, M1028) and in the presence of 100 μM PAPS (Sigma-Aldrich, St. […] Incubation volumes consisted of 400 μL and time points were taken at 0, 15, 30, and 60 minutes by the removal of a 70 μL aliquot and dilution into 140 μL acetonitrile (0% formic acid). All samples were centrifuged at 2250 g for 10 minutes at 5° C. Supernatant […] was taken from the centrifuged samples and diluted into 100 μL HPLC water containing internal standard. The samples were run on a Dionex Ultimate 3000 Auto sampler and analyzed using a Thermo Q-Exactive High Resolution Mass Spectrometer (Thermo, Waltham, Mass.) in Full Scan mode in conjunction with an Atlantis T3 column 3 μM-2.1×50 mm (Waters Inc., 186003717). Mobile Phase A consisted of Water+0.2% formic acid and Mobile Phase B consisted of acetonitrile +0.2% formic acid. Peak integration was accomplished using Gubbs GMSU software (Gubbs Inc., Alpharetta, Ga.). For each sample, peak area ratios were calculated by dividing the analyte peak area by the internal standard peak area. For each incubation, the peak area ratios of the analytes in each t0 was set to 100%, and the peak areas ratios from the 60 minute samples were converted to percentages remaining relative to the corresponding t0. Determination of sulfate metabolite formation was made qualitatively by observation of early-eluting peak in the parent ion channel which, based on historical internal data, corresponded to the O-sulfate metabolite of each parent compound.

JAK1 = JAK1 (Homo sapiens (Human), UniProt P23458); assay: Biochemical JAK kinase assay (LanthaScreen), JAK1
Chain of JAK1 (P23458 whole entry): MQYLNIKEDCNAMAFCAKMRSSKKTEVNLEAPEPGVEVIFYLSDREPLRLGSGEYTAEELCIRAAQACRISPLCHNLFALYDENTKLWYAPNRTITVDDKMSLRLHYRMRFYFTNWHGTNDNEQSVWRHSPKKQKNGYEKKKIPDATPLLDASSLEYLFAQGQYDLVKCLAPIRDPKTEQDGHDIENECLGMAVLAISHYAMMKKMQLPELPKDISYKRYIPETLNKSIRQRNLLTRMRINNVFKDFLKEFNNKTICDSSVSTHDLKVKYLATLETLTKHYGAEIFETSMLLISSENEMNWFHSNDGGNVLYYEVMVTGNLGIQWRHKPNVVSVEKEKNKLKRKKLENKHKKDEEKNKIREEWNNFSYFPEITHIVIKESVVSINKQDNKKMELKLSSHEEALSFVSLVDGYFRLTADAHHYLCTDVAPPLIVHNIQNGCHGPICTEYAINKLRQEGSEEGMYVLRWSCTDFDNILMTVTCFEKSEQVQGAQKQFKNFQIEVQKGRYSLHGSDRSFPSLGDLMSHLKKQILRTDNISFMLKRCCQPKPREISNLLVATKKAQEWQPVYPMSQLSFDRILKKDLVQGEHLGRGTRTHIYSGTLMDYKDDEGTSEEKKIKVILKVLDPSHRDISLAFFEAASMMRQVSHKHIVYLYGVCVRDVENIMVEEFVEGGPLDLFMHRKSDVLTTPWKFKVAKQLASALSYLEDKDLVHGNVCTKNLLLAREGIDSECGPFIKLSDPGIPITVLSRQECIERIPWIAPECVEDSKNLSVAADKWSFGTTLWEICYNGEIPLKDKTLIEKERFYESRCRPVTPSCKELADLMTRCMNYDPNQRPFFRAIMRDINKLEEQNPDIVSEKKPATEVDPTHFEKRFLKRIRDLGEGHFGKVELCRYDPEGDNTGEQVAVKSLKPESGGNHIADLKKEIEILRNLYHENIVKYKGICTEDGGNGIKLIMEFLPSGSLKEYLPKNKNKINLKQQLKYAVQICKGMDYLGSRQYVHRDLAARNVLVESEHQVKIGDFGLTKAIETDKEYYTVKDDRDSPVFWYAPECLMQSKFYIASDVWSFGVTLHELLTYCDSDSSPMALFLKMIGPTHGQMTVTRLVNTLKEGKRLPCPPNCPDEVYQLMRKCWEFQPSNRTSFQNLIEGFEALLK
Method: as §1, with “equation.” for “equation. Test compounds having a lower Ki value or higher pKi value in the four JAK assays show greater inhibition of JAK activity.”

Chain of JAK2 (O60674 whole entry): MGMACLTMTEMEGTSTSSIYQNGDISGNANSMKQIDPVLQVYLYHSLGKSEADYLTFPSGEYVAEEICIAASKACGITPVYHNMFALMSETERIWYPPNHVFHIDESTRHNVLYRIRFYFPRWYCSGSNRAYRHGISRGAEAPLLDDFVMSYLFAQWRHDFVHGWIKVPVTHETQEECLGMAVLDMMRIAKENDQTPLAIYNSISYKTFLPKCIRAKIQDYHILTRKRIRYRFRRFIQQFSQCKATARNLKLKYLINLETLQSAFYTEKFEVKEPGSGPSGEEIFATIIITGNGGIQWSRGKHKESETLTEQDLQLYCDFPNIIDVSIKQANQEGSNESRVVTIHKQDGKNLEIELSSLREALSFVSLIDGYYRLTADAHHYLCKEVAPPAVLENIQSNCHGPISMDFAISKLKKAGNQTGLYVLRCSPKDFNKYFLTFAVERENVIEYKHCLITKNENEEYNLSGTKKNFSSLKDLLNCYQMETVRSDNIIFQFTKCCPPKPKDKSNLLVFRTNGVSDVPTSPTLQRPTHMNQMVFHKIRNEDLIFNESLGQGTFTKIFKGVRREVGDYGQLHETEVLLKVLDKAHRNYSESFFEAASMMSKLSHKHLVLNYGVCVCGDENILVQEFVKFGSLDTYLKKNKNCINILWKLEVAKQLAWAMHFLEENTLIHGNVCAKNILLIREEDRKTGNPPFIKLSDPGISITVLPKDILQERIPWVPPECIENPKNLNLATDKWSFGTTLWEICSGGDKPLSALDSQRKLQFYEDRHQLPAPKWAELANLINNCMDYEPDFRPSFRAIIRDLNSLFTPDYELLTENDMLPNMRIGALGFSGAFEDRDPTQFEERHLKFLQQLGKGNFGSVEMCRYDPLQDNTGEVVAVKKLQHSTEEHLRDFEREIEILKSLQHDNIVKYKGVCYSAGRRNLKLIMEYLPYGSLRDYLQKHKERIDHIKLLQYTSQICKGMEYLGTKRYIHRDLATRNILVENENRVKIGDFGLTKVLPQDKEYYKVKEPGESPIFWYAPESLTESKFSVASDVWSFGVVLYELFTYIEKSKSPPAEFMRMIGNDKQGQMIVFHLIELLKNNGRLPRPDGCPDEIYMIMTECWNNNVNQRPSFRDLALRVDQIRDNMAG

Row | SMILES | JAK2 pKi (JAK2) | JAK3 pKi (JAK3) | Tyk2 pKi (Tyk2) | IC50 [1] | Compound Remaining at 60 min (%) (Lung S9 metabolism) | Sulfate Appearance (Lung S9 metabolism) | microsomal CLint at 1 µM (Lung S9 metabolism) | JAK1 pKi (JAK1)
1 | CCc1cc(O)c(F)cc1-c1ccc2c(-c3nc4c([nH]3)CN(CC)[C@H](C(=O)N3CC(N(C)C)C3)C4)n[nH]c2c1 [Compound C-2, (S)-(3-(dimethylamino)azetidin-1-yl)(5-ethyl-2-(6-(2-ethyl-5-fluoro-4-hydroxyphenyl)-1H-indazol-3-yl)-4,5,6,7-tetrahydro-3H-imidazo[4,5-c]pyridin-6-yl)methanone] | 10.9 | 9.5 | 9.4 | 2 nM | 6% | Yes | 46.7 µL/min/mg | 
2 | CCCN1Cc2[nH]c(-c3n[nH]c4cc(-c5cc(F)c(O)cc5CC)ccc34)nc2C[C@H]1C(=O)N1CC(N(C)C)C1 [Compound C-5, (S)-(3-(dimethylamino)azetidin-1-yl)(2-(6-(2-ethyl-5-fluoro-4-hydroxyphenyl)-1H-indazol-3-yl)-5-propyl-4,5,6,7-tetrahydro-3H-imidazo[4,5-c]pyridin-6-yl)methanone] | 10.8 | 10.0 | 9.4 | 2 nM | 5% | Yes | 50.5 µL/min/mg | 10.1
